In assay [1] the test system is MCF-7 human breast adenocarcinoma cells. Description: Cytotoxicity, SRB binding assay. Format: cell-based. Here is the method:
(§1) To further assess the biological efficacies of the Compounds in intact cells, each Compound was evaluated for cytotoxicity using human cancer cell lines. These experiments followed methods that have been extensively used. Cell lines tested included MCF-7 human breast adenocarcinoma cells and MCF-10A non-transformed human breast epithelial cells. The indicated cell lines were treated with varying doses of the test Compound for 48 h. Cell survival was then determined using the SRB binding assay (Skehan et al., 1990, J Natl Cancer Inst 82: 1107), and the concentration of compound that inhibited proliferation by 50% (the IC50) was calculated. Values (in μM) represent the mean±sd for replicate trials.

For assay [2], the system named is MCF-10A non-transformed human breast epithelial cells. Description: Cytotoxicity, SRB binding assay. Type of assay: cell-based. Particulars: 48 h. How it is done:
as §1

Assay [3] deals with recombinant human SK. Description: Inhibition of recombinant human SK, LC/MS/MS assay. Format: biochemical. The following applies: 6 μg/ml compound. Here is the method:
SK activity is measured by incubation of the recombinant SK with [^3H]sphingosine and 1 mM ATP under defined conditions, followed by extraction of the assay mixture with chloroform:methanol under basic conditions. […] Radioactivity in aliquots of the aqueous phase is then quantified as a measure of [^3H]S1P formation.
In an alternate assay procedure, the recombinant human SK was incubated with unlabeled sphingosine and ATP as described above. After 30 minutes, the reactions were terminated by the addition of acetonitrile to directly extract the newly synthesized S1P. The amount of S1P in the samples is then quantified as follows. C17 base D-erythro-sphingosine and C17 SIP are used as internal standards for sphingosine and S1P, respectively. […] The lipids are then fractionation by High-Performance Liquid Chromatography using a C8-reverse phase column eluted with 1 mM methanolic ammonium formate/2 mM aqueous ammonium formate. […] Calibration curves are generated by plotting the peak area ratios of the synthetic standards for each sphingolipid, and used to determine the normalized amounts of sphingosine and S1P in the samples.
Each Compound of this invention was tested for its ability to inhibit recombinant SK using the LC/MS/MS assay described above.

Where [4] appears, read: MCF7, inhibition of cell proliferation, 48 h, read-out: MCF-7 IC50.
Setting [5] is: inhibition of cell proliferation, read-out: MCF-10A IC50.

Like-named read-outs stand apart in the source and are kept apart here.

A word on the IC50: it is the concentration needed to halve the response being measured. Consider `CC(NC1CCN(C)CC1)C12CC3CC(CC(c4ccccc4)(C3)C1)C2` (stereo not drawn) [Compound 105, (1-Methyl-piperidin-4-yl)-[1-(3-phenyl-adamantan-1-yl)-ethyl]-amine], for which the figures for the IC50 in assay [1] (setting [4]) and in assay [2] (setting [5]) were 5 µM and 14 µM, respectively.

For the compound `CC(C)NC(C)C12CC3CC(CC(c4ccc(Cl)cc4)(C3)C1)C2` (stereo not drawn) [Compound 92, {1-[3-(4-Chloro-phenyl)-adamantan-1-yl]-ethyl}-isopropyl-amine], the IC50 in assay [1] (setting [4]) turned out to be 2 µM; in assay [2] (setting [5]), 6 µM.

In the case of `CC(=O)C12CC3CC(CC(C3)C1)C2` [Compound 124, 1-Adamantan-1-yl-ethanone], the IC50 in assay [1] (MCF7, 48 h, read-out: MCF-7 IC50 (μM)) worked out at 11 µM; in assay [2] (read-out: MCF-10A IC50 (μM)), 105 µM.

As for `O=C(O)C12CC3CC(C1)CC(c1ccccc1)(C3)C2` [Compound 121, 3-Phenyl-adamantane-1-carboxylic acid], the values for the half-inhibitory concentration (IC50) in assay [1] (setting [4]) and in assay [2] (setting [5]) were 13 µM and 176 µM, respectively.

Take `COC(=O)C(C(=O)OC)C(=O)C12CC3CC(C1)CC(c1ccc(Cl)cc1)(C3)C2` [Compound 129, 2-[3-(4-Chloro-phenyl)-adamantane-1-carbonyl]-malonic acid dimethyl ester]: the IC50 was determined as 16 µM in assay [1] (setting [4]) and 105 µM in assay [2] (setting [5]).

On to `O=C(NCCc1cccc(Oc2ccccc2)c1)C12CC3CC(C1)CC(c1ccc(Cl)cc1)(C3)C2` [Compound 46, 3-(4-Chloro-phenyl)-adamantane-1-carboxylic acid [2-(3-phenoxy-phenyl)-ethyl]-amide], for which, in assay [3], the “Recombinant SK (% inhibition)” value was determined as 4%. Moreover, the half-maximal inhibitory concentration (IC50) in assay [1] (setting [4]) turned out to be 91 µM.

Turning to `O=C(NCc1ccc(O)c(O)c1)C12CC3CC(CC(C3)C1)C2` [Compound 35, Adamantane-1-carboxylic acid 3,4-dihydroxy-benzylamide], the “Recombinant SK (% inhibition)” value in assay [3] was found to be 87%. For the same compound, the half-maximal inhibitory concentration (IC50) in assay [1] (setting [4]) stood at 19 µM.

Turning to `CC(Nc1ccccc1)C12CC3CC(CC(c4ccc(Cl)cc4)(C3)C1)C2` (stereo not drawn) [Compound 95, {1-[3-(4-Chloro-phenyl)-adamantan-1-yl]-ethyl}-phenyl-amine], the concentration for half-maximal inhibition (IC50) came out at 22 µM in assay [1] (setting [4]) and 68 µM in assay [2] (setting [5]).

For `COc1ccc(CCNC(=O)C23CC4CC(C2)CC(c2ccc(Cl)cc2)(C4)C3)cc1Br` [Compound 42, 3-(4-Chloro-phenyl)-adamantane-1-carboxylic acid [2-(3-bromo-4-methoxy-phenyl)-ethyl]-amide], the “Recombinant SK (% inhibition)” value in assay [3] was 5%. In addition, in assay [1] (setting [4]), the IC50 is above 100 µM.

With `CC(NCc1ccccc1)C12CC3CC(CC(C3)C1)C2` (stereo not drawn) [Compound 96, (1-Adamantan-1-yl-ethyl)-benzyl-amine], the half-inhibitory concentration (IC50) in assay [1] (setting [4]) and in assay [2] (setting [5]) was 9 µM in each case.

For the compound `O=C(NCc1cc(C(F)(F)F)cc(C(F)(F)F)c1)C12CC3CC(C1)CC(c1ccc(Cl)cc1)(C3)C2` [Compound 17, 3-(4-Chloro-phenyl)-adamantane-1-carboxylic acid 3,5-bis-trifluoromethyl-benzylamide], the “Recombinant SK (% inhibition)” value in assay [3] was 56%. The IC50 in assay [1] (setting [4]) worked out at 17 µM.

On to `CC(=O)C12CC3CC(C1)CC(c1ccc(Cl)cc1)(C3)C2` [Compound 127, 1-[3-(4-Chloro-phenyl)-adamantan-1-yl]-ethanone], for which the IC50 was 6 µM in assay [1] (setting [4]) and 16 µM in assay [2] (setting [5]).

`Clc1ccc(C23CC4CC(CC(CNCc5ccncc5)(C4)C2)C3)cc1` [Compound 88, [3-(4-Chloro-phenyl)-adamantan-1-ylmethyl]-pyridin-4-ylmethyl-amine]: in assay [3], the “Recombinant SK (% inhibition)” value came to 1%. Besides, in assay [1] (setting [4]), the IC50 is 11 µM.

On to `CN1CCN(NCC23CC4CC(C2)CC(c2ccc(Cl)cc2)(C4)C3)CC1` [Compound 83, [3-(4-Chloro-phenyl)-adamantan-1-ylmethyl]-(4-methyl-piperazin-1-yl)-amine], for which, in assay [3], the “Recombinant SK (% inhibition)” value turned out to be 60%. In addition, the IC50 in assay [1] (setting [4]) worked out at 5 µM.

Take `CCSCCNC(=O)C12CC3CC(C1)CC(c1ccc(Cl)cc1)(C3)C2` [Compound 3, 3-(4-Chloro-phenyl)-adamantane-1-carboxylic acid (2-ethylsulfanyl-ethyl)-amide]: the “Recombinant SK (% inhibition)” value in assay [3] came to 6%. In addition, the IC50 in assay [1] (setting [4]) was determined as 18 µM.

In the case of `CC(NC(=O)C12CC3CC(C1)CC(c1ccc(Cl)cc1)(C3)C2)c1ccc(Cl)cc1` (stereo not drawn) [Compound 28, 3-(4-Chloro-phenyl)-adamantane-1-carboxylic acid [1-(4-chloro-phenyl)-ethyl]-amide], the “Recombinant SK (% inhibition)” value in assay [3] was 6%. Further, in assay [1] (setting [4]), the IC50 was determined as 64 µM.

With `O=C(NCc1ccc(F)cc1Cl)C12CC3CC(C1)CC(c1ccc(Cl)cc1)(C3)C2` [Compound 25, 3-(4-Chloro-phenyl)-adamantane-1-carboxylic acid 2-chloro-4-fluoro-benzylamide], in assay [3], the “Recombinant SK (% inhibition)” value amounted to 47%. In addition, the concentration for half-maximal inhibition (IC50) in assay [1] (setting [4]) came to 87 µM.

In the case of `O=C(NCc1ccncc1)C12CC3CC(CC(C3)C1)C2` [Compound 60, Adamantane-1-carboxylic acid (pyridin-4-ylmethyl)-amide], the “Recombinant SK (% inhibition)” value in assay [3] stood at 0%. The IC50 in assay [1] (setting [4]) was 7 µM.

As to `NCc1c(Cl)c(Cl)c(Cl)c(CNC(=O)C23CC4CC(C2)CC(c2ccc(Cl)cc2)(C4)C3)c1Cl` [Compound 27, 3-(4-Chloro-phenyl)-adamantane-1-carboxylic acid 3-aminomethyl-2,4,5,6-tetrachloro-benzylamide], the “Recombinant SK (% inhibition)” value in assay [3] is recorded as 50%. Besides, the IC50 in assay [1] (setting [4]) turned out to be 8 µM.

Consider `O=C(NCc1cccc(OC(F)(F)F)c1)C12CC3CC(C1)CC(c1ccc(Cl)cc1)(C3)C2` [Compound 33, 3-(4-Chloro-phenyl)-adamantane-1-carboxylic acid 3-trifluoromethoxy-benzylamide], for which the “Recombinant SK (% inhibition)” value in assay [3] is recorded as 10%. The 50% inhibitory concentration (IC50) in assay [1] (setting [4]) was determined as 30 µM.

Consider `CC(=O)Oc1ccc(NC(=O)C23CC4CC(C2)CC(c2ccc(Cl)cc2)(C4)C3)cc1` [Compound 7, Acetic acid 4-{[3-(4-chloro-phenyl)-adamantane-1-carbonyl]-amino}-phenyl ester], for which the “Recombinant SK (% inhibition)” value in assay [3] was found to be 100%. In assay [1] (setting [4]), the IC50 is 3 µM.

As to `O=C(Nc1ncnc2[nH]cnc12)C12CC3CC(C1)CC(c1ccc(Cl)cc1)(C3)C2` [Compound 73, 3-(4-Chloro-phenyl)-adamantane-1-carboxylic acid (9H-purin-6-yl)-amide], in assay [3], the “Recombinant SK (% inhibition)” value amounted to 53%. Also, in assay [1] (setting [4]), the half-inhibitory concentration (IC50) came to 80 µM.

With `O=C(NCc1cc(F)cc(C(F)(F)F)c1)C12CC3CC(C1)CC(c1ccc(Cl)cc1)(C3)C2` [Compound 18, 3-(4-Chloro-phenyl)-adamantane-1-carboxylic acid 3-fluoro-5-trifluoromethyl-benzylamide], the “Recombinant SK (% inhibition)” value in assay [3] came to 0%. Also, the IC50 in assay [1] (setting [4]) stood at 19 µM.

Take `CC(C)(C)NCCCNC(=O)C12CC3CC(C1)CC(c1ccc(Cl)cc1)(C3)C2` [Compound 53, 3-(4-Chloro-phenyl)-adamantane-1-carboxylic acid (3-tert-butylamino-propyl)-amide]: in assay [3], the “Recombinant SK (% inhibition)” value came to 52%. Also, the IC50 in assay [1] (setting [4]) came to 11 µM.

As for `O=C(NCc1ccc(OC(F)(F)F)cc1)C12CC3CC(C1)CC(c1ccc(Cl)cc1)(C3)C2` [Compound 32, 3-(4-Chloro-phenyl)-adamantane-1-carboxylic acid 4-trifluoromethoxy-benzylamide], the “Recombinant SK (% inhibition)” value in assay [3] came out at 17%. For the same compound, the IC50 in assay [1] (setting [4]) is 24 µM.

On to `Fc1cc(C(F)(F)F)ccc1CNCC12CC3CC(C1)CC(c1ccc(Cl)cc1)(C3)C2` [Compound 78, [3-(4-Chloro-phenyl)-adamantan-1-ylmethyl]-(2-fluoro-4-trifluoromethyl-benzyl)-amine], for which the “Recombinant SK (% inhibition)” value in assay [3] is given as 43%. The IC50 in assay [1] (setting [4]) was determined as 30 µM.

As to `O=C(NCc1ccc(F)c(Cl)c1)C12CC3CC(C1)CC(c1ccc(Cl)cc1)(C3)C2` [Compound 23, 3-(4-Chloro-phenyl)-adamantane-1-carboxylic acid 3-chloro-4-fluoro-benzylamide], the “Recombinant SK (% inhibition)” value in assay [3] was 0%. The half-maximal inhibitory concentration (IC50) in assay [1] (setting [4]) is 23 µM.

As to `N#Cc1ccc(/C=C/C(=O)C23CC4CC(C2)CC(c2ccc(Cl)cc2)(C4)C3)cc1` [Compound 131, 4-{3-[3-(4-Chloro-phenyl)-adamantan-1-yl]-3-oxo-propenyl}-benzonitrile], the “Recombinant SK (% inhibition)” value in assay [3] is 41%. The IC50 in assay [1] (setting [4]) amounted to 27 µM.

For the compound `O=C(NCc1ccc(F)c(C(F)(F)F)c1)C12CC3CC(C1)CC(c1ccc(Cl)cc1)(C3)C2` [Compound 24, 3-(4-Chloro-phenyl)-adamantane-1-carboxylic acid 4-fluoro-3-trifluoromethyl-benzylamide], the “Recombinant SK (% inhibition)” value in assay [3] is on record as 20%. For the same compound, the half-inhibitory concentration (IC50) in assay [1] (setting [4]) was determined as 17 µM.

As to `O=C(NCc1ccc(C(F)(F)F)cc1)C12CC3CC(C1)CC(c1ccc(Cl)cc1)(C3)C2` [Compound 16, 3-(4-Chloro-phenyl)-adamantane-1-carboxylic acid 4-trifluoromethyl-benzylamide], in assay [3], the “Recombinant SK (% inhibition)” value turned out to be 8%. The IC50 in assay [1] (setting [4]) was 17 µM.

(Values after patent US8557800B2, “Sphingosine kinase inhibitors” (Apogee Biotechnology Corporation, priority 2005, dated 2013).)
